Laboratory results: PubChem BioAssay AID2060485 (Molecular Pharmacology Branch, DTP, NCI, 2025)

Test system: A375 multi-cell spheroids with HUVEC/MSC, viability
Experiment: Anticancer human tumor A375 cell line growth inhibition [GQUAD];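 note: spheroids exposed to compounds for seven days before readout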
Conditions: for IC50: curve of first compound; for viability, T/C: stronger effect = lower value
Summary of the method: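 Tumor cells were grown as complex spheroids with HUVEC endothelial cells and mesenchymal stem cells as stroma. G-quadruplex stabilizers were combined with targeted agents over half-log dilutions from near the clinical Cmax, or from 10 microM.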

[1] = second compound 0.0316 µM, first compound 0.0316 µM
[2] = second compound 0.0316 µM, first compound 0.1 µM
[3] = second compound 0.0316 µM, first compound 0.316 µM
[4] = second compound 0.0316 µM, first compound 1 µM
[5] = second compound 0.0316 µM, first compound 3.16 µM
[6] = second compound 0.0316 µM, first compound 10 µM
[7] = second compound 0.1 µM, first compound 0.0316 µM
[8] = second compound 0.1 µM, first compound 0.1 µM
[9] = second compound 0.1 µM, first compound 0.316 µM
[10] = second compound 0.1 µM, first compound 1 µM
[11] = second compound 0.1 µM, first compound 3.16 µM
[12] = second compound 0.1 µM, first compound 10 µM
[13] = second compound 0.316 µM, first compound 0.0316 µM
[14] = second compound 0.316 µM, first compound 0.1 µM
[15] = second compound 0.316 µM, first compound 0.316 µM
[16] = second compound 0.316 µM, first compound 1 µM
[17] = second compound 0.316 µM, first compound 3.16 µM
[18] = second compound 0.316 µM, first compound 10 µM
[19] = second compound 1 µM, first compound 0.0316 µM
[20] = second compound 1 µM, first compound 0.1 µM
[21] = second compound 1 µM, first compound 0.316 µM
[22] = second compound 1 µM, first compound 1 µM
[23] = second compound 1 µM, first compound 3.16 µM
[24] = second compound 1 µM, first compound 10 µM
[25] = second compound 3.16 µM, first compound 0.0316 µM
[26] = second compound 3.16 µM, first compound 0.1 µM
[27] = second compound 3.16 µM, first compound 0.316 µM
[28] = second compound 3.16 µM, first compound 1 µM
[29] = second compound 3.16 µM, first compound 3.16 µM
[30] = second compound 3.16 µM, first compound 10 µM
[31] = second compound 10 µM, first compound 0.0316 µM
[32] = second compound 10 µM, first compound 0.1 µM
[33] = second compound 10 µM, first compound 0.316 µM
[34] = second compound 10 µM, first compound 1 µM
[35] = second compound 10 µM, first compound 3.16 µM
[36] = second compound 10 µM, first compound 10 µM

COc1cccc2c1C(=O)c1c(O)c3c(c(O)c1C2=O)CC(O)(C(=O)CO)CC3OC1CC(N)C(O)C(C)O1 (stereo unspecified) + CN(C)c1ccc(Nc2c3ccc(NC(=O)CCN4CCCC4)cc3nc3cc(NC(=O)CCN4CCCC4)ccc23)cc1
IC50 (second compound 0.0316 µM): 0.196 µM
IC50 (second compound 0.1 µM): 0.214 µM
IC50 (second compound 0.316 µM): 0.217 µM
IC50 (second compound 1 µM): 0.222 µM
IC50 (second compound 3.16 µM): 0.229 µM
IC50 (second compound 10 µM): 0.233 µM
viability, T/C [1]: 107%
viability, T/C [2]: 70.2%
viability, T/C [3]: 34%
viability, T/C [4]: 18.7%
viability, T/C [5]: 2.21%
viability, T/C [6]: 0.12%
viability, T/C [7]: 105%
viability, T/C [8]: 75.2%
viability, T/C [9]: 34.6%
viability, T/C [10]: 18.5%
viability, T/C [11]: 2.59%
viability, T/C [12]: 0.11%
viability, T/C [13]: 110%
viability, T/C [14]: 79.7%
viability, T/C [15]: 32.2%
viability, T/C [16]: 18.3%
viability, T/C [17]: 2.01%
viability, T/C [18]: 0.1%
viability, T/C [19]: 107%
viability, T/C [20]: 80.7%
viability, T/C [21]: 33.2%
viability, T/C [22]: 17.7%
viability, T/C [23]: 2.55%
viability, T/C [24]: 0.13%
viability, T/C [25]: 112%
viability, T/C [26]: 82%
viability, T/C [27]: 34.2%
viability, T/C [28]: 18.6%
viability, T/C [29]: 2.88%
viability, T/C [30]: 0.15%
viability, T/C [31]: 103%
viability, T/C [32]: 77.5%
viability, T/C [33]: 38.3%
viability, T/C [34]: 17.9%
viability, T/C [35]: 4.36%
viability, T/C [36]: 0.25%

Cc1[nH]c2ccccc2c1CCNCc1ccc(/C=C/C(=O)NO)cc1 + CN(C)c1ccc(Nc2c3ccc(NC(=O)CCN4CCCC4)cc3nc3cc(NC(=O)CCN4CCCC4)ccc23)cc1
IC50 (second compound 0.0316 µM): 0.156 µM
IC50 (second compound 0.1 µM): 0.133 µM
IC50 (second compound 0.316 µM): 0.127 µM
IC50 (second compound 1 µM): 0.119 µM
IC50 (second compound 3.16 µM): 0.106 µM
IC50 (second compound 10 µM): 0.0977 µM
viability, T/C (second compound 0.0316 µM, first compound 0.000999 µM): 111%
viability, T/C (second compound 0.0316 µM, first compound 0.00316 µM): 101%
viability, T/C (second compound 0.0316 µM, first compound 0.00999 µM): 110%
viability, T/C [1]: 122%
viability, T/C (second compound 0.0316 µM, first compound 0.0999 µM): 76%
viability, T/C [3]: 9.06%
viability, T/C (second compound 0.1 µM, first compound 0.000999 µM): 99.1%
viability, T/C (second compound 0.1 µM, first compound 0.00316 µM): 110%
viability, T/C (second compound 0.1 µM, first compound 0.00999 µM): 124%
viability, T/C [7]: 127%
viability, T/C (second compound 0.1 µM, first compound 0.0999 µM): 64%
viability, T/C [9]: 7.22%
viability, T/C (second compound 0.316 µM, first compound 0.000999 µM): 107%
viability, T/C (second compound 0.316 µM, first compound 0.00316 µM): 110%
viability, T/C (second compound 0.316 µM, first compound 0.00999 µM): 111%
viability, T/C [13]: 114%
viability, T/C (second compound 0.316 µM, first compound 0.0999 µM): 61.5%
viability, T/C [15]: 7.25%
viability, T/C (second compound 1 µM, first compound 0.000999 µM): 104%
viability, T/C (second compound 1 µM, first compound 0.00316 µM): 113%
viability, T/C (second compound 1 µM, first compound 0.00999 µM): 116%
viability, T/C [19]: 110%
viability, T/C (second compound 1 µM, first compound 0.0999 µM): 58%
viability, T/C [21]: 5.35%
viability, T/C (second compound 3.16 µM, first compound 0.000999 µM): 98.4%
viability, T/C (second compound 3.16 µM, first compound 0.00316 µM): 106%
viability, T/C (second compound 3.16 µM, first compound 0.00999 µM): 113%
viability, T/C [25]: 114%
viability, T/C (second compound 3.16 µM, first compound 0.0999 µM): 52.3%
viability, T/C [27]: 5.53%
viability, T/C (second compound 10 µM, first compound 0.000999 µM): 111%
viability, T/C (second compound 10 µM, first compound 0.00316 µM): 98.7%
viability, T/C (second compound 10 µM, first compound 0.00999 µM): 112%
viability, T/C [31]: 106%
viability, T/C (second compound 10 µM, first compound 0.0999 µM): 48.9%
viability, T/C [33]: 3.5%

O=c1[nH]cc(F)c(=O)[nH]1 + CN(C)c1ccc(Nc2c3ccc(NC(=O)CCN4CCCC4)cc3nc3cc(NC(=O)CCN4CCCC4)ccc23)cc1
IC50 (second compound 0.0316 µM): > 10 µM
IC50 (second compound 0.1 µM): > 10 µM
IC50 (second compound 0.316 µM): > 10 µM
IC50 (second compound 1 µM): > 10 µM
IC50 (second compound 3.16 µM): > 10 µM
IC50 (second compound 10 µM): > 10 µM
viability, T/C [1]: 98.7%
viability, T/C [2]: 107%
viability, T/C [3]: 97.2%
viability, T/C [4]: 106%
viability, T/C [5]: 109%
viability, T/C [6]: 99.3%
viability, T/C [7]: 99.8%
viability, T/C [8]: 104%
viability, T/C [9]: 99.3%
viability, T/C [10]: 103%
viability, T/C [11]: 106%
viability, T/C [12]: 96.8%
viability, T/C [13]: 112%
viability, T/C [14]: 102%
viability, T/C [15]: 97.8%
viability, T/C [16]: 103%
viability, T/C [17]: 107%
viability, T/C [18]: 92.9%
viability, T/C [19]: 108%
viability, T/C [20]: 100%
viability, T/C [21]: 94.2%
viability, T/C [22]: 104%
viability, T/C [23]: 105%
viability, T/C [24]: 96%
viability, T/C [25]: 108%
viability, T/C [26]: 98.1%
viability, T/C [27]: 101%
viability, T/C [28]: 99.1%
viability, T/C [29]: 100%
viability, T/C [30]: 95.4%
viability, T/C [31]: 106%
viability, T/C [32]: 94.4%
viability, T/C [33]: 101%
viability, T/C [34]: 102%
viability, T/C [35]: 105%
viability, T/C [36]: 98.4%
